Patent US11173170B2, “Prebiotic composition and its methods of production” (Optibiotix Limited, priority 2014, dated 2021)

Assays:
Assay in all cases: Anaerobic cultures, gut bacterial groups by fluorescent in situ hybridisation at 24 hours
Type in all cases: cell-based
Bifidobacteria = tested on: Bifidobacteria
Procedure: (§1) In these experiments, anaerobic cultures were tested to evaluate the in vitro utilisation of a novel Lactobacillus reuteri galactooligosaccharide by monitoring the populations of gut bacterial groups at 24 hours using fluorescent in situ hybridisation, and short-chain fatty acid (SCFA). Fructooligosaccharides (FOS), melibiose and raffinose were used as reference carbohydrates.

Bacteroides = tested on: Bacteroides
Procedure: as §1

Lactobacilli = tested on: Lactobacilli
Procedure: as §1

Total count = tested on: Total count
Procedure: as §1

E. coli = tested on: E. coli
Procedure: as §1

Eubacteria = tested on: Eubacteria
Procedure: as §1

Clostridia = settings: for Clostridia count, 24: 24 hours, anaerobic culture, inoculum 7.55; for Clostridia, 24 hr % change: 24 hr vs inoculum
Procedure: as §1

Row | SMILES | Bifidobacteria count, 24 (Bifidobacteria; 24 hours, anaerobic culture, inoculum 6.85) | Bifidobacteria, 24 hr % change (Bifidobacteria; 24 hr vs inoculum) [%] | Bacteroides count, 24 (Bacteroides; 24 hours, anaerobic culture, inoculum 7.98) | Bacteroides, 24 hr % change (Bacteroides; 24 hr vs inoculum) [%] | Lactobacilli count, 24 (Lactobacilli; 24 hours, anaerobic culture, inoculum 7.15) | Lactobacilli, 24 hr % change (Lactobacilli; 24 hr vs inoculum) [%] | Total count, 24 (Total count; 24 hours, anaerobic culture, inoculum 8.84) | Total count, 24 hr % change (Total count; 24 hr vs inoculum) [%] | E. coli count, 24 (E. coli; 24 hours, anaerobic culture, inoculum 8.14) | E. coli, 24 hr % change (E. coli; 24 hr vs inoculum) [%] | Eubacteria count, 24 (Eubacteria; 24 hours, anaerobic culture, inoculum 8.06) | Eubacteria, 24 hr % change (Eubacteria; 24 hr vs inoculum) [%] | Clostridia count, 24 (Clostridia) | Clostridia, 24 hr % change (Clostridia) [%]
1 | OC[C@H]1O[C@H](OCC2O[C@@H](O)[C@H](O)[C@@H](O)[C@@H]2O)[C@H](O)[C@@H](O)[C@H]1O (stereo partly shown) [Melibiose, melibiose] | 7.33 | 107 | 7.9 | 99 | 7.43 | 104 | 9.14 | 103 | 7.66 | 94 | 7.84 | 97 | 7.65 | 101
2 | OC[C@H]1O[C@H](OC[C@H]2O[C@H](O[C@]3(CO)O[C@H](CO)[C@@H](O)[C@@H]3O)[C@H](O)[C@@H](O)[C@@H]2O)[C@H](O)[C@@H](O)[C@H]1O [Raffinose, raffinose] | – | – | – | – | – | – | – | – | – | – | – | – | 7.81 | 103
